The test system of one data set is HCT-116. In words: Antiproliferative activity against human HCT-116 cells assessed as inhibition cell proliferation incubated for 6 days by MTT assay. The conditions noted are these: HCT-116, 144 h. It counts as functional, cell-based. Background: Tetrazolium assays rely on reduction of a dye to a coloured formazan, in cell work by metabolically active cells.
The test system of data set [1] is SW1990. In words: Antitumor activity against human SW1990 cells xenografted in BALB/c nude mouse model assessed as decrease in CD133 level at 30 to 60 mg/kg, ip for 21 days consecutively by IHC analysis. Particulars: dose 30-60 mg/kg, time 21.0 day. Type of data set: functional, organism-based. A general note: In xenograft studies the graft and the host belong to different species.

In data set [2] the test system is SW1990. The experiment in a line: Induction of cell cycle arrest at S phase in human SW1990 cells at 2 uM incubated for 6 days by PI staining based flow cytometry (reference value: 21.20 %). It counts as functional. Particulars: time 6 day. (In general: A flow cytometer gives signals particle by particle.)
For data set [3], the system named is SW1990. In words: Antitumor activity against human SW1990 cells xenografted in BALB/c nude mouse model assessed as change in cell contraction treated intraperitoneally for 21 days consecutively by H and E staining based analysis. It counts as functional. The conditions noted are these: dose 30-60 mg/kg, route ip, time 21.0 day.
Data set [4] is described as follows: Metabolic stability in mouse liver microsomes assessed as half life at 1 uM preincubated for 10 mins followed by NADPH measured for 60 mins by LC-MS/MS analysis. The conditions noted are these: time 70 min. It counts as ADME, Microsome.
Data set [5] deals with SW1990. In words: Induction of cell cycle arrest at S phase in human SW1990 cells at 1 uM incubated for 6 days by PI staining based flow cytometry (reference value: 21.20 %). Type of data set: functional. Particulars: time 6 day.
In data set [6] the test system is SW1990. In words: Induction of apoptosis in human SW1990 cells assessed as early apoptotic cells at 2 uM incubated for 6 days by Annexin V/PI staining based flow cytometry (reference value: 4.55 %). Type of data set: functional. Particulars: time 6 day.
Data set [7] addresses T1, Serine/threonine-protein kinase DCLK1 (Homo sapiens) (UniProt O15075).
T1 sequence (whole entry): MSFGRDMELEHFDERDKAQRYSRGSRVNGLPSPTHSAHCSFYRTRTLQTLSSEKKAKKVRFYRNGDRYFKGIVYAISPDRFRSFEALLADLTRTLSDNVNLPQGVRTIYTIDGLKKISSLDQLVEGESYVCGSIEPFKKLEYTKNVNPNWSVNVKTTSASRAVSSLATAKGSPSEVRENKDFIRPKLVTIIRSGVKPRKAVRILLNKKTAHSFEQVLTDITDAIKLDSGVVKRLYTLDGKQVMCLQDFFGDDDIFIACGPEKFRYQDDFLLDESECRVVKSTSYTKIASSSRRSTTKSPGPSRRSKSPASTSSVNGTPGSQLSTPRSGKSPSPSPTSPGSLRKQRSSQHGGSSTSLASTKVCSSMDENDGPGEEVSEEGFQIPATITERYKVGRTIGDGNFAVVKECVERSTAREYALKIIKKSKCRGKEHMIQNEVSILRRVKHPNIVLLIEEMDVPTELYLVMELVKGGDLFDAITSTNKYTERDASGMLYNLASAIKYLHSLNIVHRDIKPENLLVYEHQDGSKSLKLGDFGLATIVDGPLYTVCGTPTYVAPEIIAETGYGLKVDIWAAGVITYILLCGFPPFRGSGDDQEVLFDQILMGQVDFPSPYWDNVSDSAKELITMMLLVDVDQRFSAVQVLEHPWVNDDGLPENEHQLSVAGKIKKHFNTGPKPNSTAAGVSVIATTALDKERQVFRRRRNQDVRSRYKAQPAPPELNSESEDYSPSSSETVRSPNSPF
The experiment in a line: Inhibition of DCLK1 (unknown origin) at 200 nM preincubated for 10 mins followed by substrate/ATP addition measured after 60 mins by mobility shift assay relative to control. The conditions noted are these: time 70.0 min.

Data set [8] deals with SW1990. In words: Antitumor activity in human SW1990 cells assessed as decrease in CD133 level at 0.5 to 2 uM by immunofluorescence based analysis. It counts as functional, cell-based. The conditions noted are these: dose 0.5-2 µM.
Data set [9] has as its system SW1990. The experiment in a line: Induction of apoptosis in human SW1990 cells assessed as viable cells at 1 uM incubated for 6 days by Annexin V/PI staining based flow cytometry (reference value: 92.93 %). It counts as functional. Particulars: SW1990, 144 h, time 6 day, read-out: Activity.
The nature of data set [10]: Metabolic stability in mouse liver microsomes assessed as intrinsic clearance at 1 uM preincubated for 10 mins followed by NADPH measured for 60 mins by LC-MS/MS analysis. Type of data set: ADME, Microsome. The conditions noted are these: time 70 min, read-out: CLH.
The subject of data set [11] is SW1990. In words: Inhibition of cell migration in human SW1990 cells at 0.5 to 2 uM by transwell assay. Type of data set: functional, cell-based. The conditions noted are these: dose 0.5-2 µM.
For data set [12], the system named is SW1990. The experiment in a line: Induction of cell cycle arrest at S phase in human SW1990 cells at 0.5 uM incubated for 6 days by PI staining based flow cytometry (reference value: 21.20 %). It counts as functional. The conditions noted are these: time 6 day.
Data set [13] deals with SW1990. In words: Upregulation of E-cadherin level in human SW1990 cells at 0.5 to 2 uM by Western blot analysis. It counts as functional, cell-based. The conditions noted are these: dose 0.5-2 µM.

The record followed here is ChEMBL document CHEMBL5634144, “Design, synthesis and biological evaluation of novel DCLK1 inhibitor containing purine skeleton for the treatment of pancreatic cancer” (Eur J Med Chem, 2023).

The source made the active and inactive calls. The calls are words filed in the database; no cut-off is given here.

Turning to `COc1cc(N2CCN(C)CC2)ccc1Nc1nc(Nc2ccccc2S(=O)(=O)C(C)C)c2nc[nH]c2n1`, in the data set with HCT-116, the IC50 (in general, the midpoint of a concentration-inhibition curve) is 3 µM. Moreover, the result with SW1990 [1], in the data set on SW1990 [8] and in the data set with SW1990 [13] was Active. The Activity was 14.23% in the data set with SW1990 [2]; “Dose-Dependent Effect” in the data set with SW1990 [3]; 19.75% in the data set with SW1990 [5]; 21.76% with SW1990 [6]; 19.66% with SW1990 [12]. In addition, the half-life (commonly the time in which the quantity being followed falls by half) at 1 µM in data set [4] was 45.9 min. For the same compound, the inhibition (usually the relative decrease from the control value, in per cent) in [7] came out at 29.8%. For the same compound, in the data set on SW1990 [9], the viability at 1 µM stood at 65.3%. In addition, in data set [10], the CLint scaled at 1 µM is 120 mL/min/kg. The microsomal CLint at 1 µM in data set [10] is 30.2 µL/min/mg. Besides, the inhibition entry with SW1990 [11] was “Active”.
